Reference: patent publication US20120028880A1, “VEGFR-1/NRP-1 TARGETING PEPTIDES” (priority 2007, published 2012)
Read-outs that look alike come from different tables or passages of the source. One block for each compound: values may come before it. Square brackets hold non-standard residues; d marks the D form. Ends that are not written are not given here. Peptide text beside a SMILES is read from it.

Tests used:
[1] = Weight loss in diet-induced obese mice; format: in vivo, mouse
Excerpt: The present inventors thus carried out studies to assess the ability of the LPR VEGFR-1 targeting peptides of the present invention to target fat tissue and thereby reduce weight in diet-induced obese mice. To this end, diet-induced obese mice were divided in groups and treated with the VEGFR-1/NRP-1 targeting peptide. C57BL/6 ]-60% DIO mice (36-weeks old) were purchased from The Jackson Laboratory. These animals were fed on a high calorie diet (J-60%) to produce a diet-induced obesity (DIO) phenotype. Animals were divided in groups and treated daily with: [Group 1]D(CLPRC) (SEQ ID NO:7) (N=5); [Group 2] CKGGRAKDC-GG-D(KLAKLAK)2 (SEQ ID NO:9) (N=3); [Group 3]D(CLPRC) combined with CKGGRAKDC-GG-D(KLAKLAK)2 (SEQ ID NO:10) (N=4); [Group 4] vehicle only (N=4). All animals were hydrated by intraperitoneally administration of 1 ml of saline solution (0.9% sodium chloride solution, USP quality) 30 minutes prior to treatment. Mice were treated daily with D(CLPRC) dissolved in phosphate buffered saline vehicle (PBS) (100 μl total injection) at a 50 mg/Kg/body weight dose (Groups 1 and 3); CKGGRAKDC-GG-D(KLAKLAK)2 (SEQ ID NO:9) in PBS was administered by subcutaneously (100 total volume) at 3 mg/Kg (Group 2) or at 1 mg/Kg when in combination with D(CLPRC) (Group 3) 5 days a week (Monday thru Friday). Mice were weighted once a week.

[2] = tested on: white fat; conditions: previous studies of the inventors; cited from earlier work
[3] = target: T1, VEGFR-1 (Homo sapiens, UniProt P17948); assay: Phage binding competition assay, immobilized VEGFR-1
T1 construct: purchased R&D Systems (Minneapolis, Minn.)
Method: (§1) Phage assay. Phage was prepared by infection of log-phase culture of E. coli K91kan, and overnight growth in Luria-Bertani (LB) media supplemented with kanamycin (100 μg/ml) and tetracyclin (20 μg/ml) at 37° C. and 250 rpm. Phage was precipiated from the media supernatant by the PEG/NaCl method, and phage titer determined by serial dilution and colony counting (Giordano, 2001). For the phage binding and competition assays, VEGFR-1, NRP-1 or BSA (10 μg/ml in PBS) was immobilized on microtiter wells overnight at 4° C. Wells were washed twice, blocked with PBS 3% BSA for 2 h at room temperature and incubated with 10^9 TU of CPQPRPLC or negative control insertless (Fd-tet) phage in PBS 3% BSA. After 1 h at room temperature, wells were washed 10 times with PBS and phage bound to the immobilized receptors recovered by bacterial infection (Giordano, 2001).

[4] = target: T2, NRP-1 (Homo sapiens, UniProt O14786); assay: Phage binding competition assay, immobilized NRP-1
T2 construct: purchased R&D Systems (Minneapolis, Minn.)
Method: as §1

[5] = tested on: pancreatin; assay: Protease resistance assay; format: in vitro ADME; conditions: increasing concentrations of pancreatin, highest ratio 400 pg/nmol; 2 h at 37° C.; MALDI-TOF
Method: Protease resistance assay. The D(LPR) and RPL peptides were diluted to 500 μg/ml in PBS and incubated with increasing concentrations of pancreatin (Sigma-Aldrich, St. Louis, Mo.) for 2 h at 37° C. Samples were then analyzed by mass spectroscopy (MALDI-TOF).

[6] = tested on: EF43.fgf4 derived tumors; assay: Tumor growth, EF43.fgf4 breast cancer model; format: in vivo, mouse
Method: Tumor growth. The EF43.fgf4 cells were cultured in Dulbelco's modified Eegles medium supplemented with fetal bovine serum, glutamine and antibiotics. Cells were harvested before reaching confluence and injected subcutaneously in the mammary fatpad of Balb/c mice. Mier 10 days, tumor reached ˜50-80 mm^3 and were then separated into four groups with seven animals (N=7). Animals in each group were treated with either vehicle only (phosphate saline buffered solution) or with control peptide D(CAPAC) (SEQ ID NO:6) or D(LPR) (at 50 mg/Kg) or with the cyclic version D(CLPRC) (SEQ ID NO:7) (at 25 mg/Kg). Tumor volume was calculated by measuring the length of the long (L) and the short (S) sides of each tumor (V=S^2×L×[…]).
Statistical analysis. For the in vivo experiments, statistical significance of the difference was computed by Kruskal-Wallis test (non parametric one factor ANOVA method) with p<0.05 for each treatment day. […] Multiple comparisons were adjusted by Bejamini & Hochberg method. All the statistical analysis was computed using The R (Version 2.4.1) Project for Statistical Computing.

[7] = target: T1, VEGFR-1; conditions: Giordano et al., 2001; read-out: IC50 previously described for VEGFR-1; cited from earlier work
[8] = target: T2, NRP-1; conditions: Giordano et al., 2001; read-out: IC50 previously described for NRP-1; cited from earlier work
[9] = fat-zapper alone, 3 mg/Kg subcutaneously, obese mice
[10] = obese C57BL/6 mice, 50 mg/Kg daily intraperitoneally, over the treatment period

T1 sequence (P17948 27-1338, species assumed): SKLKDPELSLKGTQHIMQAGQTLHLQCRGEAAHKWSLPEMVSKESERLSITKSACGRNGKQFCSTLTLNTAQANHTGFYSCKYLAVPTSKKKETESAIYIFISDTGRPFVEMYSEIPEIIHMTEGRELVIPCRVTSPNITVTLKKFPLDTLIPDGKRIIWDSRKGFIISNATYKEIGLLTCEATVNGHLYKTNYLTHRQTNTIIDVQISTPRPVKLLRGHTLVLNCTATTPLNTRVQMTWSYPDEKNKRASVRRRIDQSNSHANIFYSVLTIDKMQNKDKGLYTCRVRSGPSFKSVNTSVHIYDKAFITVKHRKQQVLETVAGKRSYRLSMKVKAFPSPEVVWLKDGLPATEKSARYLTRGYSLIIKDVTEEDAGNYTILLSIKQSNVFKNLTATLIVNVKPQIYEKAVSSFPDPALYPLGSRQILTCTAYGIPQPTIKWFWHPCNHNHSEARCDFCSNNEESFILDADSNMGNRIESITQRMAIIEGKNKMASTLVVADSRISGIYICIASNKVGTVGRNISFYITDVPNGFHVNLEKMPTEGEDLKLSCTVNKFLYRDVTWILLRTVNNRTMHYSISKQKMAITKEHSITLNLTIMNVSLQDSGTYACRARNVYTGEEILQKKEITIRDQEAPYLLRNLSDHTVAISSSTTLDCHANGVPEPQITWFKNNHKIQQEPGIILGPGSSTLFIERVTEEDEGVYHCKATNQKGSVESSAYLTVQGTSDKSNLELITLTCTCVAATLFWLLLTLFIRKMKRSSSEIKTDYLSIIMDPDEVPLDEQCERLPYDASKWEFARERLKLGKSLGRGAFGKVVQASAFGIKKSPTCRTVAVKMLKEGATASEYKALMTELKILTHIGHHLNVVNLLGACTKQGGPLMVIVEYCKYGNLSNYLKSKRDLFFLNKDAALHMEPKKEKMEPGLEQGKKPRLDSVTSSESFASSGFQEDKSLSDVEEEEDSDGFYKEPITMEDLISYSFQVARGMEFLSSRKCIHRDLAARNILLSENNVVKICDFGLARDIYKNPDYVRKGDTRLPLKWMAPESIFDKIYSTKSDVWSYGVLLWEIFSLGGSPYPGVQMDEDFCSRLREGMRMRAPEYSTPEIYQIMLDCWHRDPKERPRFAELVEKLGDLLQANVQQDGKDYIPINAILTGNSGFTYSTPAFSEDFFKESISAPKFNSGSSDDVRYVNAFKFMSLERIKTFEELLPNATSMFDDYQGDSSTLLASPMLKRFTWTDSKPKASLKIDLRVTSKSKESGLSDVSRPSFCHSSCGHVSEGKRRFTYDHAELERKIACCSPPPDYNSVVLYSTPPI
T2 sequence (O14786 22-923): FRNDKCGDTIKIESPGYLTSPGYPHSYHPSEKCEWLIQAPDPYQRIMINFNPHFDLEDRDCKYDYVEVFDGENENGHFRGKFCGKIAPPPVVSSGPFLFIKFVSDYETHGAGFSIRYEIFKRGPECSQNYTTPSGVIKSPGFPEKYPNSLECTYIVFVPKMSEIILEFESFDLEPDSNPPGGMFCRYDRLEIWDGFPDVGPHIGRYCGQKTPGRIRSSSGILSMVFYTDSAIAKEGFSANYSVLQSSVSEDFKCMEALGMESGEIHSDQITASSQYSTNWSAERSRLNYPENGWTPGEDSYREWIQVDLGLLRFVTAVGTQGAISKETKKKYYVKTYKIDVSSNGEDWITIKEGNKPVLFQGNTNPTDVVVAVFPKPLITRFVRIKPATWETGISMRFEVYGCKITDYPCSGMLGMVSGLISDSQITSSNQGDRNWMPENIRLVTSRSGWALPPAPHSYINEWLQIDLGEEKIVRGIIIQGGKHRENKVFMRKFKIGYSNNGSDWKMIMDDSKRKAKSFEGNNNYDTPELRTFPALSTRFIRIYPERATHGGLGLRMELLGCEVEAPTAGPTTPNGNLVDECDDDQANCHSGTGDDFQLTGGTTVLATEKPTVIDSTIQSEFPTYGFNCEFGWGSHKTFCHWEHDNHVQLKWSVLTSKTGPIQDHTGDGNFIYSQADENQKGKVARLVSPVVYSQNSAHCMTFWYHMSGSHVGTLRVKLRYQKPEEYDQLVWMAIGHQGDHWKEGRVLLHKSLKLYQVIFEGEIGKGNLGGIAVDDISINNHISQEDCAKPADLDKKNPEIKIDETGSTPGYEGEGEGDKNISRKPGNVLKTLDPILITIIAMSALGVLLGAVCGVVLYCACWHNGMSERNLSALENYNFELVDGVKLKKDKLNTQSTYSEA

Compound: CKGGRAKDC-GG-D(KLAKLAK)2 (CKGGRAKDCGG[dK][dL][dA][dK][dL][dA][dK][dK][dL][dA][dK][dL][dA][dK]; cysteine pairing not given here) [fat-zapper, homing peptide … conjugated to the proapoptotic peptide D(KLAKLAK)2, reference compound]
- weight loss [1, 9]: about 10 grams
- weight loss, % body weight [1, 9]: 20 % body weight
- therapeutic dose that induces fat ablation [2]: ≥ 3 mg/Kg/body weight

Compound: CC(C)C[C@@H](N)C(=O)N1CCC[C@@H]1C(=O)N[C@H](CCCNC(=N)N)C(=O)O [D(LPR), D-Leu-D-Pro-D-Arg] (H-[dL]-[dP]-[dR]-OH)
- IC50 [3]: 0.001 to 0.01 nM
- IC50 [4]: 0.001 to 0.01 nM
- proteolytic degradation by pancreatin (breakdown products by mass spectroscopy) [5]: No breakdown products were observed

Compound: D(Cys Leu Pro Arg Cys) ([dC][dL][dP][dR][dC]; also: cyclic, ring type not given here) [D(CLPRC)]
- effect on tumor volume ([6]; 25 mg/Kg daily, Balb/c mice): significant reduction in tumor volume
- effect on tumor volume (FIG. 3 legend) ([6]; legend: 50 mg/Kg daily, after five days of treatment, compared to control animals): reduced tumor volume
- weight loss [1, 10]: about 3 grams
- weight loss, % of body weight [1, 10]: approx. 6 % of body weight

Compound: CPQPRPLC
- IC50 [7]: ~1 nM
- IC50 [8]: 50 to 100 nM

- proteolytic degradation by pancreatin (breakdown products by mass spectroscopy) [5]: marked degradation
Compound: CC(C)C[C@H](NC(=O)[C@@H]1CCCN1C(=O)[C@@H](N)CCCNC(=N)N)C(=O)O [RPL, L-Arg-L-Pro-L-Leu, reference compound] (H-Arg-Pro-Leu-OH)
